Experimental data as given in patent publication US20040146971A1, “Novel p53 inducible protein” (priority 2001, published 2004).
Starred links: 1 amine or outer side, 2 acyl side, 3 side chain; linkers in the order of their positions; H or OH if unused. Positions of bridges follow the written chain, without caps; N, C: chain ends. Non-standard residues stand in square brackets, D forms with d. Residues, ends and D or L forms follow the SMILES beside them. Chains are numbered I, II in the order given. Actinocin(9to1) = Cc1c2oc3c(C)ccc(C(=O)[*:1])c3nc-2c(C(=O)[*:2])c(N)c1=O; NMeV = CN[C@H](C(=O)O)C(C)C; Sar = CNCC(=O)O

Experiments:
[1] = test system: NIH3T3-derived Scotin antisense and control antisense fibroblasts; assay: Cell survival by Giemsa staining, Scotin antisense versus control antisense fibroblasts; format: cell-based, mouse; settings: different doses
Procedure: Cell survival was determinated as described in the Experimental Procedures by trypan blue 24 h after irradiation. Histogram represents the compilation of 4 independent experiments. Standard Deviation is reported as error bars. b) Clonoge assay; Scotin antisense and control antisense expressing fibroblasts were treated at concentrations indicated with the DNA-damaging agent Doxorubicin (Dx) or with the activators of ER stress Thapsigargin (Tg) or Tunicamycin (Tu) or with an activator of mitochondrial stress, FCCP. After treatment, cells were fixed in methanol and stained by Giemsa.
Cells were treated with different doses of doxorubicin for 24 h and were allowed to recover for 24 h after treatment. Cell survival was estimated by giemsa staining.
(§1) The list of conditions known to trigger the ER stress response includes treatment of cells with thapsigargin, which interferes with calcium flux across the ER membrane, or tunicamycin, an inhibitor of N-linked glycosylation, or reducing agents, or deprivation of nutrients such as glucose, amino acids, or hypoxia. […] NIH3T3, p53−/−, Scotin antisense and control antisense expressing fibroblasts were treated with different doses of thapsigargin or tunicamycin or FCCP, a protonophore inducing mitochondrial stress. Cell survival was estimated by giemsa staining (FIG. 12.3).

[2] = test system: p53−/− fibroblasts; assay: Apoptosis of p53-/- fibroblasts after ER stress activators; format: cell-based, mouse
Procedure: as §1

[3] = test system: NIH3T3 fibroblasts; assay: TUNEL staining of drug-treated NIH3T3 fibroblasts; format: cell-based, mouse; settings: NIH3T3, 24 h; tunicamycin 1 μg/ml, thapsigargin 150 nM
Procedure: NIH3T3 fibroblasts were treated for 24 h with 1 μg/ml of tunicamycin, fixed by paraformaldehyde and stained by TUNEL. Cells in apoptosis are stained by TUNEL (eft hand images).
For TUNEL assay, cells (3×10^5) seeded on 2-well glass chamber slide, were transfected as described. Cells were fixed for 30 min at RT in 4% paraformaldehyde in PBS, washed in PBS and permeabilised 2 min at 4° C. in 0.1% Triton X-100, 0.1% sodium citrate. The TUNEL staining was performed accordingly to the manufacturer's protocol (In Situ Cell Death Detection kit, Roche Molecular Biochemicals). The apoptotic cells presenting fragmented DNA were then labelled in green after incorporation of fluorescein.

[4] = test system: Scotin; assay: Western blot of Scotin protein induction in mouse embryonic fibroblasts; format: cell-based; settings: 60 ng/ml
Procedure: (§2) FIG. 7 is a western blot which illustrates that p53 is necessary and sufficient to induce Scotin protein expression. a) Only primary mouse embryonic fibroblasts (MEF) expressing WTp53 induce Scotin after UV irradiation or Actinomycin D treatment. MEF from p53−/− and p53+/+ littermate mice were exposed to UV-C light (20 J/m2) or Actinomycin D (60 ng/ml). Proteins were extracted at time indicated after treatment and analysed by Western blot by using affinity purified rabbit polyclonal anti-mouse-Scotin antibody. As a positive control, p53 and Waf induction were determined by using CM5 rabbit polyclonal anti-mouse p53 antibody and F5 mouse monoclonal anti-Waf antibody. […] Scotin expression was analysed by Western blot by using affinity purified rabbit polyclonal anti-human Scotin antibody. […]
(§3) Cells were washed and scraped in PBS buffer and centrifuged at 2000 rpm for 2 min. […] Protein concentration of the supernatant was determined by the Bradford assay. […]
(§4) In order to further characterise Scotin protein, it was essential to identify cell lines that could induce Scotin upon DNA damage. […] Proteins were extracted after treatment and levels analysed by Western blot Waf and p53 protein levels were used as an indication of p53 activation.

[5] = test system: Scotin; assay: Western blot of Scotin protein induction in human fibroblasts and tumour cell lines; format: cell-based
Procedure: as §2, §3, §4

Compound: COc1cccc2c1C(=O)c1c(O)c3c(c(O)c1C2=O)C[C@@](O)(C(=O)CO)C[C@@H]3O[C@H]1C[C@H](N)[C@H](O)[C@H](C)O1 [doxorubicin]
- resistance of Scotin antisense cells compared with control antisense cells to cell death induced by the drug [1]: more resistant

Compound: N#CC(C#N)=NNc1ccc(OC(F)(F)F)cc1 [FCCP]
- resistance of Scotin antisense cells compared with control antisense cells to cell death induced by the drug [1]: not

Compound: tunicamycin
- apoptosis induced by the drug in p53−/− fibroblasts [2]: resistant
- cell death by TUNEL [3]: die by apoptosis
- resistance of Scotin antisense cells compared with control antisense cells to cell death induced by the drug [1]: more resistant

Compound: C/C=C(/C)C(=O)O[C@H]1C(C)=C2[C@H]([C@@H]1OC(=O)CCCCCCC)[C@@](C)(OC(C)=O)C[C@H](OC(=O)CCC)[C@@]1(O)[C@H]2OC(=O)[C@@]1(C)O [thapsigargin]
- apoptosis induced by the drug in p53−/− fibroblasts [2]: resistant
- resistance of Scotin antisense cells compared with control antisense cells to cell death induced by the drug [1]: more resistant

Compound: Cc1c2oc3c(C)ccc(C(=O)N[C@@H]4C(=O)N[C@H](C(C)C)C(=O)N5CCC[C@H]5C(=O)N(C)CC(=O)N(C)[C@@H](C(C)C)C(=O)O[C@@H]4C)c3nc-2c(C(=O)N[C@@H]2C(=O)N[C@H](C(C)C)C(=O)N3CCC[C@H]3C(=O)N(C)CC(=O)N(C)[C@@H](C(C)C)C(=O)O[C@@H]2C)c(N)c1=O [Actinomycin D] (I: T[dV]P[Sar][NMeV] / II: T[dV]P[Sar][NMeV]; ester I:1-I:C, II:1-II:C; linker I:N-II:N via Actinocin(9to1))
- Scotin protein level ([4]; p53+/+ MEF): clearly accumulated
- Scotin protein level ([4]; p53−/− MEF): not
- Scotin protein level ([5]; human primary fibroblast and tumour cells expressing wt p53, 60 ng/ml): clearly accumulated
- Scotin protein level ([5]; human tumour cell lines devoid of p53 expression, 60 ng/ml): not
